Results published in article PMC4827351 (Chemical Science, 2015).

Columns and labels:
[1] = tested on: L. monocytogenes ATCC 19115; assay: Cuvette-based bacterial agglutination assay; format: cell-based, Listeria monocytogenes; conditions: n = 3
Description: We previously reported a simple cuvette-based in vitro agglutination assay that enables time-dependent monitoring of agglutination of viable bacteria by HD6.[15] We employed this assay to further characterize the trypsin-dependent activity of proHD6 on cultured bacterial cells (Fig. 4a and b). […] In these assays, we defined the “supernatant” as the culture solution in the top portion of the cuvette and the “re-suspension” as the mixture that results from agitating the entire culture after the 6 h incubation period.[15] We observed an ≈1.5-fold log reduction in CFU mL^–1 for the “supernatant” from cultures treated with combination of trypsin and proHD6 relative to the no-peptide control (Fig. 4c). Following “re-suspension”, the total CFU mL^–1 in the cuvette was indistinguishable from that of either the untreated control culture or the bacterial culture treated with proHD6.
Fig. 4 Bacterial agglutination assays for native and cleaved proHD6. (a) Agglutination of E. coli ATCC 25922 and L. monocytogenes ATCC 19115 in 50% MHB treated with proHD6 in the absence and presence of 0.4 μM trypsin or HD6 (control). (b) Representative images of cuvettes containing E. coli ATCC 25922 or L. monocytogenes ATCC 19115 after incubation with 20 μM peptides for 2 h at room temperature. (c) Plots of colony forming units (CFU mL^–1) of E. coli ATCC 25922 and L. monocytogenes ATCC 19115 after treatment with 20 μM peptides for 6 h (mean ± SDM, n = 3). Supernatant is defined as the clarified medium solution in the top portion of the culture and resuspension is defined as the mixture after thoroughly agitating the heterogeneous solution.
Stock solutions (50 μL) of HD6 and proHD6 (0, 50, 100, and 200 μM; 10× concentrations) were prepared in sterile Milli-Q water. If trypsin was required, aliquots of a 1 mg mL^–1 stock solution of TPCK-treated trypsin (Worthington) prepared in sterile Milli-Q water were added to solutions of proHD6 to afford a final trypsin concentration of 0.01 mg mL^–1. The assays were then conducted following the reported procedure.[15] […]

[2] = tested on: E. coli ATCC 25922; assay: SEM analysis of bacterial agglutination; format: cell-based, Escherichia coli; conditions: 3 µM proHD6 treated with trypsin before incubation (trypsin inactivated with APMSF), 30 min, 50 mM Tris-maleate pH 6.4
Protocol: Fig. 3 TEM analysis of HD6 self-assembly and SEM analysis of bacterial agglutination. Top row: transmission electron micrographs of 10 mM sodium phosphate pH 7.4 (control), 0.4 μM trypsin (control), 20 μM proHD6 in the absence and presence of 0.4 μM trypsin, and 20 μM HD6. All the samples were incubated at room temperature for 1 h. Scale bar = 100 nm. TEM images obtained using 10 mM Tris-maleate pH 6.4 are presented in Fig. S7. ^† Middle row: scanning electron micrographs of E. coli ATCC 25922 treated with 50 mM Tris-maleate pH 6.4 (control), 0.4 μM APMSF-inactivated trypsin (control), 3 μM proHD6, 3 μM trypsin-cleaved proHD6, or 3 μM HD6. Trypsin-cleaved proHD6 was prepared prior to incubation with the bacteria and the residual enzymatic activity was inhibited by APMSF (Experimental section). Following a 30 min incubation, the bacterial suspensions were centrifuged, fixed, and analyzed by SEM. Scale bar = 20 μm. Bottom row: SEM of L. monocytogenes ATCC19115 treated under the same conditions as in the middle row. Scale bar = 20 μm.
Bacteria were grown aerobically at 37 °C overnight in LB media. The next morning the strains were subcultured and grown to mid-logarithmic phase in LB media. […]

## EPLQAEDDPLQAKAYEADAQEQRGANDQDFAVSFAEDASSSLRALGSTRAFTCHCRRSCYSTEYSYGTCTVMGINHRFCCL (disulfide (positions not given here)) [proHD6, 81-residue propeptide of human α-defensin 6, recombinant, from His6-SUMO-proHD6]
[1]; 20 µM proHD6 + trypsin, 6 h, entire culture agitated
  total CFU mL^-1 after re-suspension versus untreated control culture or culture treated with proHD6: indistinguishable
[1]; proHD6 + 0.4 µM (0.01 mg/mL) trypsin, 10^8 CFU mL^-1, 50% MHB, room temperature
  agglutination of bacterial culture in cuvette, with trypsin: bacterial agglutination and sedimentation occurred
[1]; proHD6 up to 20 µM, no trypsin, 10^8 CFU mL^-1, 50% MHB, 6 h, room temperature
  agglutination of bacterial culture in cuvette: remained homogeneous
[2]
  bacterial agglutination (SEM), trypsin-cleaved: entangled and agglutinated E. coli
